Test results reported in ChEMBL document CHEMBL1201862, “PubChem BioAssay data set” (2004).
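48-hour exposure; five concentrations; linearly interpolated endpoints. GI50 marks 50% less growth.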 Activity calls are given as the source filed them. Cut-off read from the data, not from the text of the source: active = GI50 up to about 1.1 µM and inactive = higher.

How the values were obtained:
Assay in all cases: growth of human tumour cells (NCI), 48 h
SK-OV-3 = tested on: SK-OV-3
U-251 = tested on: U-251
SK-MEL-5 = tested on: SK-MEL-5
ACHN = tested on: ACHN
HOP-92 = tested on: HOP-92
NCI-H226 = tested on: NCI-H226
UO-31 = tested on: UO-31
MDA-MB-231 = tested on: MDA-MB-231
OVCAR-5 = tested on: OVCAR-5
Malme-3M = tested on: Malme-3M
OVCAR-8 = tested on: OVCAR-8
MDA-N = tested on: MDA-N
HCT-116 = tested on: HCT-116
SF-268 = tested on: SF-268
K562 = tested on: K562
COLO 205 = tested on: COLO 205
SF-295 = tested on: SF-295
MOLT-4 = tested on: MOLT-4
EKVX = tested on: EKVX
UACC-257 = tested on: UACC-257
LOX IMVI = tested on: LOX IMVI
PC-3 = tested on: PC-3
786-0 = tested on: 786-0
T47D = tested on: T47D
M14 = tested on: M14
NCI-H23 = tested on: NCI-H23
MCF7 = tested on: MCF7
OVCAR-3 = tested on: OVCAR-3
UACC-62 = tested on: UACC-62
IGROV-1 = tested on: IGROV-1
CAKI-1 = tested on: CAKI-1
SN12C = tested on: SN12C
Hs-578T = tested on: Hs-578T
DU-145 = tested on: DU-145
NCI/ADR-RES = tested on: NCI/ADR-RES
SNB-19 = tested on: SNB-19
SK-MEL-28 = tested on: SK-MEL-28
HT-29 = tested on: HT-29
NCI-H460 = tested on: NCI-H460
NCI-H522 = tested on: NCI-H522
HCT-15 = tested on: HCT-15
A498 = tested on: A498
RPMI-8226 = tested on: RPMI-8226
TK-10 = tested on: TK-10
SNB-75 = tested on: SNB-75
SF-539 = tested on: SF-539
SR = tested on: SR
HL-60 = tested on: HL-60
KM12 = tested on: KM12
MDA-MB-435 = tested on: MDA-MB-435
SW-620 = tested on: SW-620
OVCAR-4 = tested on: OVCAR-4
A549 = tested on: A549
HOP-62 = tested on: HOP-62
BT-549 = tested on: BT-549
SK-MEL-2 = tested on: SK-MEL-2
RXF 393 = tested on: RXF 393
HCC 2998 = tested on: HCC 2998

SMILES: Nc1ccccc1SC(C[N+](=O)[O-])c1ccc2c(c1)OCO2 (stereo not given)
- GI50 (SK-OV-3): 4.54 µM (inactive)
- GI50 (U-251): 2.64 µM (inactive)
- GI50 (SK-MEL-5): 3.26 µM (inactive)
- GI50 (ACHN): 6.46 µM (inactive)
- GI50 (HOP-92): 15.6 µM (inactive)
- GI50 (NCI-H226): 11.2 µM (inactive)
- GI50 (UO-31): 1.87 µM (inactive)
- GI50 (MDA-MB-231): 7.1 µM (inactive)
- GI50 (OVCAR-5): 3.65 µM (inactive)
- GI50 (Malme-3M): 15.7 µM (inactive)
- GI50 (OVCAR-8): 2.78 µM (inactive)
- GI50 (MDA-N): 1.75 µM (inactive)
- GI50 (HCT-116): 1.81 µM (inactive)
- GI50 (SF-268): 7.55 µM (inactive)
- GI50 (K562): 1.63 µM (inactive)
- GI50 (COLO 205): 3.71 µM (inactive)
- GI50 (SF-295): 4.89 µM (inactive)
- GI50 (MOLT-4): 2.3 µM (inactive)
- GI50 (EKVX): 3.89 µM (inactive)
- GI50 (UACC-257): 1.81 µM (inactive)
- GI50 (LOX IMVI): 1.75 µM (inactive)
- GI50 (PC-3): 7.66 µM (inactive)
- GI50 (786-0): 1.66 µM (inactive)
- GI50 (T47D): 4.18 µM (inactive)
- GI50 (M14): 1.62 µM (inactive)
- GI50 (NCI-H23): 3.08 µM (inactive)
- GI50 (MCF7): 2.99 µM (inactive)
- GI50 (OVCAR-3): 3.28 µM (inactive)
- GI50 (UACC-62): 13.2 µM (inactive)
- GI50 (IGROV-1): 1.51 µM (inactive)
- GI50 (CAKI-1): 13.7 µM (inactive)
- GI50 (SN12C): 3.37 µM (inactive)
- GI50 (Hs-578T): 5.64 µM (inactive)
- GI50 (DU-145): 2.62 µM (inactive)
- GI50 (NCI/ADR-RES): 20.5 µM (inactive)
- GI50 (SNB-19): 12 µM (inactive)
- GI50 (SK-MEL-28): 3.4 µM (inactive)
- GI50 (HT-29): 1.89 µM (inactive)
- GI50 (NCI-H460): 2.12 µM (inactive)
- GI50 (NCI-H522): 14.1 µM (inactive)
- GI50 (HCT-15): 3.01 µM
- GI50 (A498): 8.39 µM (inactive)
- GI50 (RPMI-8226): 1.22 µM (inactive)
- GI50 (TK-10): 2.63 µM (inactive)
- GI50 (SNB-75): 2.34 µM (inactive)
- GI50 (SF-539): 2.24 µM (inactive)
- GI50 (SR): 1.91 µM (inactive)
- GI50 (HL-60): 1.9 µM (inactive)
- GI50 (KM12): 2.44 µM (inactive)
- GI50 (MDA-MB-435): 2.32 µM (inactive)
- GI50 (SW-620): 2.31 µM (inactive)
- GI50 (OVCAR-4): 11.6 µM (inactive)
- GI50 (A549): 3.1 µM (inactive)
- GI50 (HOP-62): 2.12 µM (inactive)
- GI50 (BT-549): 4.22 µM (inactive)
- GI50 (SK-MEL-2): 14.6 µM (inactive)
- GI50 (RXF 393): 1.8 µM (inactive)
- GI50 (HCC 2998): 1.78 µM (inactive)

SMILES: COc1ccc(/[N+]([O-])=C/c2ccccc2OC(=S)S)cc1
- GI50 (SK-OV-3): 86.1 µM (inactive)
- GI50 (U-251): 46.6 µM (inactive)
- GI50 (SK-MEL-5): 30.5 µM (inactive)
- GI50 (ACHN): 38.5 µM (inactive)
- GI50 (HOP-92): 12.4 µM (inactive)
- GI50 (NCI-H226): 30.8 µM (inactive)
- GI50 (UO-31): 24.6 µM (inactive)
- GI50 (MDA-MB-231): 56.2 µM (inactive)
- GI50 (OVCAR-5): 35.9 µM (inactive)
- GI50 (Malme-3M): > 100 µM (inactive)
- GI50 (OVCAR-8): 18.7 µM (inactive)
- GI50 (MDA-N): 24.7 µM (inactive)
- GI50 (HCT-116): 25.5 µM (inactive)
- GI50 (SF-268): 34.8 µM (inactive)
- GI50 (K562): 37.4 µM (inactive)
- GI50 (COLO 205): 30.1 µM (inactive)
- GI50 (SF-295): 33.8 µM (inactive)
- GI50 (MOLT-4): 37.7 µM (inactive)
- GI50 (EKVX): 40.2 µM (inactive)
- GI50 (UACC-257): 29 µM (inactive)
- GI50 (LOX IMVI): 20.1 µM (inactive)
- GI50 (PC-3): 39.3 µM (inactive)
- GI50 (786-0): 24.9 µM (inactive)
- GI50 (T47D): 41.8 µM (inactive)
- GI50 (M14): 25.5 µM (inactive)
- GI50 (NCI-H23): 27.7 µM (inactive)
- GI50 (MCF7): 33.6 µM (inactive)
- GI50 (OVCAR-3): 28.4 µM (inactive)
- GI50 (UACC-62): 32.6 µM (inactive)
- GI50 (IGROV-1): 27.6 µM (inactive)
- GI50 (CAKI-1): 33.7 µM (inactive)
- GI50 (SN12C): 24.5 µM (inactive)
- GI50 (Hs-578T): 33.7 µM (inactive)
- GI50 (DU-145): 39.9 µM (inactive)
- GI50 (NCI/ADR-RES): 28.1 µM (inactive)
- GI50 (SNB-19): 51.3 µM (inactive)
- GI50 (SK-MEL-28): 72.8 µM (inactive)
- GI50 (HT-29): 22.4 µM (inactive)
- GI50 (NCI-H460): 45.1 µM (inactive)
- GI50 (NCI-H522): 25.1 µM (inactive)
- GI50 (HCT-15): 30.6 µM
- GI50 (A498): 26.1 µM (inactive)
- GI50 (RPMI-8226): 25.6 µM (inactive)
- GI50 (TK-10): 80.7 µM (inactive)
- GI50 (SNB-75): 62.4 µM (inactive)
- GI50 (SF-539): 22.6 µM (inactive)
- GI50 (SR): 28.4 µM (inactive)
- GI50 (HL-60): 24.3 µM (inactive)
- GI50 (KM12): 31 µM (inactive)
- GI50 (MDA-MB-435): 21.4 µM (inactive)
- GI50 (SW-620): 39.8 µM (inactive)
- GI50 (OVCAR-4): 28.4 µM (inactive)
- GI50 (A549): > 100 µM (inactive)
- GI50 (BT-549): 23.2 µM (inactive)
- GI50 (SK-MEL-2): 28.2 µM (inactive)
- GI50 (RXF 393): 52 µM (inactive)
- GI50 (HCC 2998): 44.5 µM (inactive)
